Measured values published in patent US10117899B2, “Delivery methods and compositions for nuclease-mediated genome engineering in hematopoietic stem cells” (Sangamo BioSciences, Inc., priority 2013, dated 2018).

Tests used:
CD34+ cells = experiment: Gene targeting of CD34+ cell subpopulations in culture supplemented with SR1 and/or dmPGE2; format: cell-based, human
Procedure: CD34+ cells were either freshly purified from human cord blood after obtaining informed consent and upon approval by the San Raffaele Hospital Bioethical Committee, or purchased frozen from Lonza. 10^6 CD34+ cells/ml were stimulated in serum-free StemSpan medium (StemCell Technologies) supplemented with penicillin, streptomycin and human early-acting cytokines (stem cell factor (SCF) 100 ng/ml, Flt3 ligand (Flt3-L) 100 ng/ml, thrombopoietin (TPO) 20 ng/ml, and interleukin 6 (IL-6) 20 ng/ml; all purchased from Peprotech) for 24 or 48 hr and then infected with IDLVs at multiplicity of infection (MOI) 100-500. The following day the cells were electroporated with 175 μg/ml ZFNs encoding mRNAs (P3 Primary Cell 4D-Nucleofector X Kit, program EO 100; Lonza). For some experiments, the following drugs were supplemented to the culture media: 1 μM SR1 (Novartis) added at every medium change, and 10 μM PGE2 (Cayman) added at the beginning of the culture, 1 hour before and just after electroporation. For CFC assays, 800 cells were plated one day after electroporation in methylcellulose-based medium (MethoCult H4434, StemCell Technologies). Two weeks after plating, colonies were counted and identified according to morphological criteria.
Because cell cycle progression is a major requirement of HDR, and activation of the more primitive progenitors may require longer stimulation, we postponed the gene targeting procedure to the third day of culture (FIG. 3C). At this time, the cells are also likely to become more permissive to LV transduction. However, since increasing times of culture lead to increased differentiation, we also tested addition of the Aryl Hydrocarbon Receptor Antagonist (StemRegenin 1, SR1) and/or 16.16 dimethyl-prostaglandin E2 (dmPGE2) to the culture medium to promote progenitor expansion in conditions that have been reported to preserve the stemness of these cells (FIG. 3D).

NSG mice = experiment: Transplantation of gene targeted CD34+ cells in NSG mice, engraftment of human CD45+ and GFP+ cells; format: in vivo; conditions: for effect on in vivo differentiation of treated cells: addition to the in vitro culture, PB 14 weeks post-transplant; for fraction of mice successfully engrafted with GFP+ cells: delayed treatment and addition of SR1 and dmPGE2 used in combination
Source text: For the in vivo studies, 8- to 11-week-old NOD-SCID-IL2Rg^−/− (NSG) mice were purchased from the Jackson laboratory. The experimental protocol was approved by the Institutional Animal Care and Use Committee of the San Raffaele Scientific Institute. At day 4 of culture, 3×10^5 gene targeted CD34+ cells (or 7.5×10^5 BM derived cells) were infused intravenously into the mice after sub-lethal irradiation (200 cGy).MDA3 human mammary carcinoma cell line was obtained by stable transduction of MDA-MB 231 cells with lentiviral vectors expressing the human cytokines GMCSF, IL-7 and IL-15 from the PGK promoter. 4×10^6MDA3 cells were implanted orthotopically in the mammary fat pad of NSG mice 14 weeks after CD34+ cells transplantation or in age-matched untransplanted NSG mice. Human CD45+ engraftment was followed by serial collections of blood from the mouse tail and, at the end of the experiment (12-23 weeks after transplantation), BM, spleen and thymus cells were harvested and analyzed. HumanT lymphocytes were enriched from mouse splenocytes using magnetic beads conjugated to anti human CD3 and CD28 antibodies (Dynabeads human T-activator CD3/CD28; Invitrogen), following the manufacturer instructions, and grown in Iscove's Modified Dulbecco's Media (IMDM) (GIBCO-BRL) supplemented with penicillin, streptomycin, 10% FBS and 5 ng/ml each of IL-7 and IL-15 (PeproTech).

[1] = 1 μM SR1 added to culture medium

Structure (SMILES)	apoptotic rate of cells treated with or without dmPGE2 (CD34+ cells)	effect on percentage of GFP+ cells in all subpopulations (CD34+ cells; dmPGE2 added to culture, additive effects with SR1)	effect on in vivo differentiation of treated cells (NSG mice)	fraction of mice successfully engrafted with GFP+ cells (NSG mice) [%]	effect on overall yield of GFP+ CFC and early (CD133+) progenitors (CD34+ cells; [1])	effect on percentage of GFP+ cells within each subpopulation (CD34+ cells; [1])	effect on targeting efficiency (CD34+ cells; SR1 treatment)	effect on the more primitive fractions in culture (CD34+ cells; SR1 treatment)	total human cell engraftment in the mice (NSG mice; after SR1 addition to the culture)
CCCCC(C)(C)[C@H](O)/C=C/[C@H]1[C@H](O)CC(=O)[C@@H]1C/C=C\CCCC(=O)O [dmPGE2, 16.16 dimethyl-prostaglandin E2]	did not observe significant differences	further increased	did not significantly affect	100					
CC(C)n1cnc2c(NCCc3ccc(O)cc3)nc(-c3csc4ccccc34)nc21 [SR1, StemRegenin 1]			did not significantly affect	100	increased	slightly reduced	did not significantly influence	helped maintain the more primitive fractions in culture	significantly increased
